Test results: PMC5913645, “Methyl phenlactonoates are efficient strigolactone analogs with simple structure” (Journal of Experimental Botany, 2017)
Entries after “also recorded” stand apart in the source; their conditions may differ.

Experiments:
rice d10 mutant = assay: Rice micro tillering bioassay, d10 mutant; type: in vivo; settings: for EC50: Oryza sativa, read-out: EC50 for tillering inhibition of the rice d10 mutant
Procedure: Rice seeds (WT, d3, d10) were surface-sterilized by washing with 70% ethanol for 1 min and then with 2.5% sodium hypochlorite for 15 min. Seeds were then rinsed thoroughly with sterile MilliQ water and incubated in water for 2 d at 30 °C in the dark. Pre-germinated seeds were transferred to filter papers containing half-strength MS medium in 90 mm Petri dishes and incubated at 30 °C under fluorescent white light (130–180 μmol m^−2 s^−1) for 1 week. Seven-day-old seedlings were transferred to 50 ml falcon tubes (one seedling per tube) containing modified half-strength Hoagland nutrient solution and grown in greenhouse. Plants were treated with MPs at 2.5 μM to 2.5 × 10^–7 μM, using GR24 as positive control. The compounds were applied six times, twice a week. Number of tillers per plant, plant height and fresh biomass were measured at final harvest.
Statistical analyses were carried out using the statistical software package R (version 3.2.2). Dose–response curves and half-maximum effective concentrations (EC50) were calculated to determine optimum amount of MPs. The synthetic strigolactone analog GR24 was used as reference to estimate efficacy of selected compounds. EC50 and estimated response were calculated using the drc package (https://cran.r-project.org/web/packages/drc/) with a four parameter logistic curve (dose–response curve) ([Ritz and Streibig, 2005]).

ShHTL7 [1] = target: T1, ShHTL7 (Striga hermonthica, UniProt A0A0M3PNA2); assay: Intrinsic tryptophan fluorescence assay, ShHTL7; type: binding
T1 sequence (A0A0M3PNA2 1-271): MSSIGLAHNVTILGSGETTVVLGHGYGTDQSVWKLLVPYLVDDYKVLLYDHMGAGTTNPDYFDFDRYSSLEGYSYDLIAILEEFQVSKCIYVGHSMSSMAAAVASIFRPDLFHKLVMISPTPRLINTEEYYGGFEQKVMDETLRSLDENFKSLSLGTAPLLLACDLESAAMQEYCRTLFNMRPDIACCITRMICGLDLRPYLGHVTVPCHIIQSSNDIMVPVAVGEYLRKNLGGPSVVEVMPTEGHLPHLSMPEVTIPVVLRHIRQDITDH
From the text: Striga hermonthica ShHTL7 cDNA was used, GenBank accession KR013127, kindly provided by Tsuyoshi Ota, The University of Tokyo, Japan. Arabidopsis D14 (AtD14) cDNA, GenBank accession AY097402, was synthesized and cloned into pUC57 (GenScript). ShHTL7 and OsD14 cDNAs were amplified by RT-PCR using the primers shown in Supplementary Table S2, digested with BamHI and XhoI, and ligated into BamHI/XhoI-digested pGEX-6P-1 expression vector (GE Healthcare). […] The plasmids were then transformed into E. coli BL21 (DE3) cells. The cells were grown in LB broth containing ampicillin ([…]), incubated at 37 °C until OD600 of 0.6 and induced with 0.1 mM isopropyl-β-D-thiogalactopyranoside at 16 °C for 16 h. Harvested cells were resuspended in lysis buffer: 50 mM Tris–HCl (pH 8.0), 200 mM NaCl, 0.5% Tween-20 and 2 mM dithiothreitol (DTT). After sonication on ice for 10 min, the lysate was centrifuged at 75 000 g for 30 min at 4 °C. Supernatant was allowed to bind to glutathione–sepharose beads (GE Healthcare) for 2 h at 4 °C, washed 3 times with buffer (50 mM Tris-HCl (pH 8.0), 200 mM NaCl, 2 mM DTT), and eluted by cleaving the GST moiety with PreScission™ Protease (GE Healthcare) at 4 °C overnight. […]

ShHTL7 [2] = target: T1, ShHTL7; assay: In vitro hydrolysis assay, ShHTL7; type: biochemical; settings: 10 µM substrate, 50 µg ml^−1 protein, 37 °C, HPLC
From the text: Striga hermonthica ShHTL7 cDNA was used, GenBank accession KR013127, kindly provided by Tsuyoshi Ota, The University of Tokyo, Japan. Arabidopsis D14 (AtD14) cDNA, GenBank accession AY097402, was synthesized and cloned into pUC57 (GenScript). ShHTL7 and OsD14 cDNAs were amplified by RT-PCR using the primers shown in Supplementary Table S2, digested with BamHI and XhoI, and ligated into BamHI/XhoI-digested pGEX-6P-1 expression vector (GE Healthcare). […] The plasmids were then transformed into E. coli BL21 (DE3) cells. The cells were grown in LB broth containing ampicillin ([…]), incubated at 37 °C until OD600 of 0.6 and induced with 0.1 mM isopropyl-β-D-thiogalactopyranoside at 16 °C for 16 h. Harvested cells were resuspended in lysis buffer: 50 mM Tris–HCl (pH 8.0), 200 mM NaCl, 0.5% Tween-20 and 2 mM dithiothreitol (DTT). After sonication on ice for 10 min, the lysate was centrifuged at 75 000 g for 30 min at 4 °C. Supernatant was allowed to bind to glutathione–sepharose beads (GE Healthcare) for 2 h at 4 °C, washed 3 times with buffer (50 mM Tris-HCl (pH 8.0), 200 mM NaCl, 2 mM DTT), and eluted by cleaving the GST moiety with PreScission™ Protease (GE Healthcare) at 4 °C overnight. Eluted protein was further purified by gel filtration using a HiLoad 16/60 Superdex200 prep grade column (GE Healthcare) on an AKTA prime system (GE Healthcare) in gel filtration buffer (10 mM HEPES pH 7.5, 50 mM KCl and 2 mM DTT). […] Purified protein was concentrated using an Amicon 10K filter unit (Merck Millipore) and stored at −80 °C until use. A similar expression and purification protocol was followed for OsD14 protein, except that OsD14 was eluted from glutathione resins using 0.2 mM reduced glutathione (Sigma-Aldrich) without cutting the GST tag.
The hydrolysis of GR24 and MPs by ShHTL7/OsD14 was performed in a total volume of 0.5 ml of phosphate-buffered saline containing 10 µM of substrate. Purified ShHTL7/OsD14 was added at a concentration of 50 µg ml^−1 and incubated for the indicated time at 37 °C. After adding 1-indanol (10 µl of a 2.5 mg ml^−1 solution in methanol), as internal standard, solutions were filtered and transferred to HPLC vials. […] The column was operated at 30 °C with a flow rate of 0.2 ml min^−1. Eluted compounds were detected using a diode array detector. Amounts of remaining substrates were determined by calculating corresponding peaks, in comparison with an internal standard.

[3] = Chemical stability in aqueous solution (UHPLC); type: physicochemical; settings: aqueous solution pH 6.8, 21 °C, 50 μg ml^−1, monitored at 24 h intervals up to 3 weeks
Procedure: Aqueous solutions of MPs (50 μg ml^−1; pH 6.8) were incubated at 21 °C in amber HPLC vials (adapted from [de Saint Germain et al., 2016]). For sample preparation, 50 μl of an acetone solution (1 mg ml^−1) was diluted to the final concentration with methanol (425 μl), water (500 μl) and 25 μl of 1-indanol (1.0 mg ml^−1 solution in acetone) as internal standard. […] Compounds eluted from the column were detected with a diode array detector. The relative quantity of remaining (non-degraded) product was determined by comparison with the internal standard. Stability was monitored at 24 h intervals up to 3 weeks.

Arabidopsis seedlings = assay: Arabidopsis lateral root density; type: in vivo; settings: 1.0 μM, 8-day-old seedlings
Procedure: Sterilized Arabidopsis seeds were sown on half-strength MS (with 0.5% sucrose+1% agar, 0.5 g l^−1 MES, pH 5.7) plates supplemented with GR24 or MPs (at 1.0 μM). Plates were stored at 4 °C in darkness for 3 d and then vertically grown at 22 °C in a Percival incubator under long day condition (16 h at 22 °C/8 h at 16 °C day/night, 60% relative humidity, 60–70 μmol m^−2 s^−1 white light) for 8 d. For determining the effect on lateral root density and primary root length, at least 30 seedlings were measured using ImageJ software after scanning roots.

Structure (SMILES) | number of tillers per plant, d10 mutant (rice d10 mutant; 2.5 μM, hydroponic culture, Mock four tillers per plant) | EC50 (rice d10 mutant) | Kd (ShHTL7 [1]) | hydrolysis rate by ShHTL7 (rank order) (ShHTL7 [2]) | stability in comparison with GR24 [3] | reduction of lateral root number/density (Arabidopsis seedlings) | growth, senescence symptoms and biomass of rice seedlings (rice d10 mutant; 2.5 μM)
CC1=CC(OC=C2C(=O)OC3c4ccccc4CC23)OC1=O (centres unmarked) [GR24, reference compound] | one | 48.3 nM | 440 ± 210 nM | highest hydrolysis rates with MP1, followed by MP7, GR24, and finally MP3 |  |  | 
COC(=O)/C(=C/OC1C=C(C)C(=O)O1)c1ccc([N+](=O)[O-])cc1 (centres unmarked) [MP1, (E)-methyl 3-(4-methyl-5-oxo-2,5-dihydrofuran-2-yloxy)-2-(4-nitrophenyl)acrylate] |  | 242 nM |  | highest hydrolysis rates with MP1, followed by MP7, GR24, and finally MP3 | slightly less stable than GR24 | most efficient compound and showed an activity higher than that of GR24 | 
COC(=O)/C(=C/OC1C=C(C)C(=O)O1)c1ccccc1 (centres unmarked) [MP3, (E)-methyl 3-(4-methyl-5-oxo-2,5-dihydrofuran-2-yloxy)-2-phenylacrylate] |  | 2.98 nM |  | highest hydrolysis rates with MP1, followed by MP7, GR24, and finally MP3 | more stable than GR24 |  | stunted the growth and caused senescence symptoms; also recorded: growth retardation and senescence
COC(=O)/C(=C/OC1C=C(C)C(=O)O1)c1ccc(Cl)cc1 (centres unmarked) [MP7] |  | 25.4 nM | 1150 ± 310 nM | highest hydrolysis rates with MP1, followed by MP7, GR24, and finally MP3 | more stable than GR24 | slightly more active than GR24 | 
